In patent publication US20230348362A1, “LIPID COMPOUNDS AND LIPID NANOPARTICLE COMPOSITIONS” (Suzhou Abogen Biosciences Co., Ltd., priority 2021, published 2023):

Assays:
Type in all cases: physicochemical
[1] = Lipid nanoparticle size and polydispersity by dynamic light scattering; conditions: LNP of lipid/DSPC/cholesterol/PEG-lipid 50:10:38.5:1.5 encapsulating hEPO mRNA
Description: (§1) Briefly, a cationic lipid provided herein, DSPC, cholesterol, and PEG-lipid were solubilized in ethanol at a molar ratio of 50:10:38.5:1.5, and mRNA were diluted in 10 to 50 mM citrate buffer, pH=4. The LNPs were prepared at a total lipid to mRNA weight ratio of approximately 10:1 to 30:1 by mixing the ethanolic lipid solution with the aqueous mRNA solution at a volume ratio of 1:3 using a microfluidic apparatus, total flow rate ranging from 9-30 mL/min. Ethanol were thereby removed and replaced by DPBS using dialysis. Finally, the lipid nanoparticles were filtered through a […] sterile filter.
(§2) Lipid nanoparticle size were determined by dynamic light scattering using a Malvern Zetasizer Nano ZS (Malvern UK) using a […] backscatter detection mode. The encapsulation efficiency of lipid nanoparticles were determined using a Quant-it Ribogreen RNA quantification assay kit (Thermo Fisher Scientific, UK) according to the manufacturer's instructions.

[2] = Apparent pKa of LNP formulations, TNS fluorescence assay; conditions: LNP cationic lipid/DSPC/cholesterol/DMG-PEG 50/10/38.5/1.5 mol %
Description: As reported in literature, the apparent pKa of LNP formulations correlates with the delivery efficiency of LNPs for nucleic acids in vivo. The apparent pKa of each formulation was determined using an assay based on fluorescence of 2-(p-toluidino)-6-napthalene sulfonic acid (TNS). LNP formulations comprising of cationic lipid/DSPC/cholesterol/DMG-PEG (50/10/38.5/1.5 mol %) in PBS were prepared as described above. TNS was prepared as a 300 μM stock solution in distilled water. LNP formulations were diluted to 0.1 mg/mL total lipid in 3 mL of buffered solutions containing 50 mM sodium citrate, 50 mM sodium phosphate, 50 mM sodium borate, and 30 mM sodium chloride where the pH ranged from 3 to 9. An aliquot of the TNS solution was added to give a final concentration of […] and following vortex mixing fluorescence intensity was measured at room temperature in a Molecular Devices Spectramax iD3 spectrometer using excitation and mission wavelengths of 325 nm and 435 nm. A sigmoidal best fit analysis was applied to the fluorescence data and the pKa value was measured as the pH giving rise to half-maximal fluorescent intensity.

[3] = Encapsulation efficiency of lipid nanoparticles, Quant-it Ribogreen RNA assay; conditions: LNP of lipid/DSPC/cholesterol/PEG-lipid 50:10:38.5:1.5 encapsulating hEPO mRNA
Description: as §1, §2

polydispersity [1] | size (nm) [1] | Apparent Pka [2] | Encapsulation Efficiency [3] | SMILES
0.076 | 90.8 nm | 6.709 | 91.9% | CCCCCCCCCCCOC(=O)CCCCCN(CCN(CCO)CCCCCC(=O)OCC(CCCCCC)CCCCCCCC)C1CCC1 (stereo not drawn) [Compound 4]
0.043 | 86.61 nm | 6.814 | 95.02% | CCCCCCCCC(CCCCCCCC)COC(=O)CCCCCN(CCO)CCCCN(CCCCCC(=O)OCC(CCCCCCCC)CCCCCCCC)C1CCC1 [Compound 86]
– | – | 6.699 | – | CCCCCCCC(=O)OCC(CCCCN1CCC(N(CCO)CCCCC(COC(=O)CCCCCCC)COC(=O)CCCCCCC)CC1)COC(=O)CCCCCCC [Compound 180]
0.051 | 71.01 nm | – | 89.74% | CCCCCCCCC(CCCCCC)CNC(=O)CCCCCN(CCO)CCN(CCCCC(COC(=O)CCCCCCC)COC(=O)CCCCCCC)C1CCCCC1 (stereo not drawn) [Compound 140]
0.066 | 64.03 nm | – | 86.6% | CCCCCCCCCCCCC(O)CN(CCCCCC(=O)OCC(CCCCCC)CCCCCCCC)CCN(CCCCCC(=O)OCCCCCCCCCCC)C1CCC1 (stereo not drawn) [Compound 2]
0.080 | 77.72 nm | – | 90.71% | CCCCCCCCC(CCCCCC)CNC(=O)CCCCCN(CC)CCN(CCO)CCCCC(COC(=O)CCCCCCC)COC(=O)CCCCCCC (stereo not drawn) [Compound 159]
0.096 | 86.16 nm | – | 86.18% | CCCCCCCC(=O)OCC(CCCCN(CCO)CCN(CCCCC(COC(=O)CCCCCCC)COC(=O)CCCCCCC)C1CCCCCC1)COC(=O)CCCCCCC [Compound 160]
0.118 | 60.06 nm | – | 89.8% | CCCCCCCCC(CCCCCCCC)CNC(=O)CCCCCN(CCO)CCN(CCCCCC(=O)NCC(CCCCCCCC)CCCCCCCC)C1CCCCCC1 [Compound 14]
0.087 | 69.75 nm | – | 92.21% | CCCCCCCCCCCOC(=O)CCCCCN(CC=C(C)C)CCN(CCO)CCCCCC(=O)OCC(CCCCCCCC)CCCCCCCC [Compound 119]
0.076 | 76.26 nm | – | 96.23% | CCCCCCCCC(CCCCCCCC)CNC(=O)CCCCCN1CCC(N(CCO)CCCCCC(=O)OCC(CCCCCCCC)CCCCCCCC)CC1 [Compound 171]
0.035 | 124.60 nm | – | 87.16% | CCCCCCCCC(CCCCCC)COC(=O)CCCCCN(CCO)CCN(CCCCC(COC(=O)CCCCCCC)COC(=O)CCCCCCC)C1CCC1 (stereo not drawn) [Compound 135]
0.050 | 79.67 nm | – | 89.34% | CCCCCCCCCCCOC(=O)CCOCCN(CCN(CCO)CCOCCC(=O)OCC(CCCCCCCC)CCCCCCCC)C1CCCCC1 [Compound 117]
0.081 | 64.31 nm | – | 90.40% | CCCCCCCCC(CCCCCC)COC(=O)CCCCCN(CC=C(C)C)CCN(CCO)CCCCC(COC(=O)CCCCCCC)COC(=O)CCCCCCC (stereo not drawn) [Compound 148]
0.047 | 68.91 nm | – | 88.63% | CCCCCCCCC(CCCCCC)CNC(=O)CCCCCN(CCO)CCN(CCCCC(COC(=O)CCCCCCC)COC(=O)CCCCCCC)C1CCCCCCC1 (stereo not drawn) [Compound 145]
0.044 | 81.25 nm | – | 90.35% | CCCCCCCCCCCOC(=O)CCCCCN(CCN(CCO)CCOCCC(=O)OCC(CCCCCCCC)CCCCCCCC)C1CCC1 [Compound 114]
0.058 | 63.54 nm | – | 89.17% | CCCCCCCCC(CCCCCC)CNC(=O)CCCCCN(C)CCN(CCO)CCCCC(COC(=O)CCCCCCC)COC(=O)CCCCCCC (stereo not drawn) [Compound 158]
0.068 | 82.68 nm | – | 85.46% | CCCCCCCC(=O)OCC(CCCCN(CC=C(C)C)CCN(CCO)CCCCC(COC(=O)CCCCCCC)COC(=O)CCCCCCC)COC(=O)CCCCCCC [Compound 162]
0.060 | 76.86 nm | – | 91.06% | CCCCCCCCCCCOC(=O)CCCCCN(CCN(CCO)CCCCCC(=O)OCC(CCCCCCCC)CCCCCCCC)C1CCCC1 [Compound 130]

polydispersity [1] | size (nm) [1] | Apparent Pka [2] | Encapsulation Efficiency [3] | SMILES
0.063 | 78.27 nm | – | 91.79% | CCCCCCCCCCCOC(=O)CCCCCN1CCC(N(CCO)CCCCCCCC(=O)OC(CCCCCCCC)CCCCCCCC)CC1 [Compound 174]
0.037 | 76.62 nm | – | 92.59% | CCCCCCCCC(CCCCCCCC)CC(=O)NCCCCCN(CCN(CCO)CCCCCOC(=O)CC(CCCCCCCC)CCCCCCCC)C1CCCCCCC1 [Compound 75]
0.068 | 61.61 nm | – | 95.29% | CCCCCCCCCCCOC(=O)CCCCCN1CCC(N(CCO)CCCCCC(=O)OCC(CCCCCCCC)CCCCCCCC)CC1 [Compound 173]
0.064 | 76.12 nm | – | 92.84% | CCCCCCCCCCCC(=O)OCCCCCN(CCN(CCO)CCCCCOC(=O)CC(CCCCCCCC)CCCCCCCC)C1CCCC1 [Compound 93]
0.043 | 78.75 nm | – | 92.71% | CCCCCCCCC(CCCCCC)CNC(=O)CCCCCN(CC=C(C)C)CCN(CCO)CCCCC(COC(=O)CCCCCCC)COC(=O)CCCCCCC (stereo not drawn) [Compound 149]
0.068 | 67.69 nm | – | 91.83% | CCCCC/C=C\C/C=C\CCCCCCCC(=O)OCCCCCN(CCN(CCO)CCCCCC(=O)OCC(CCCCCCCC)CCCCCCCC)C1CCCCC1 [Compound 108]
0.107 | 81.24 nm | – | 90.03% | CCCCCCCCC(CCCCCC)CNC(=O)CCCCCN(CCO)CCN(CCCCC(COC(=O)CCCCCCC)COC(=O)CCCCCCC)C1CCCC1 (stereo not drawn) [Compound 138]
0.061 | 69.59 nm | – | 93.55% | CCCCCCCCC(CCCCCCCC)CNC(=O)CCCCCN1CCC(N(CCO)CCCCCC(=O)NCC(CCCCCCCC)CCCCCCCC)CC1 [Compound 172]
0.123 | 65.70 nm | – | 95.27% | CCCCCCCCCOC(=O)CCCCCCCN(CCO)C1CCN(CCCCCCCC(=O)OC(CCCCCCCC)CCCCCCCC)CC1 [Compound 176]
0.055 | 66.15 nm | – | 82.8% | CCCCCCCCC(CCCCCCCC)CNC(=O)CCCCCN(CCO)CCN(CCCCCC(=O)NCC(CCCCCCCC)CCCCCCCC)C1CCC1 [Compound 11]
0.089 | 101.6 nm | – | 87.7% | CCCCCCCCCCCOC(=O)CCCCCN(CCN(CCO)CCCCCC(=O)OCC(CCCCCC)CCCCCCCC)C1CCCCC1 (stereo not drawn) [Compound 6]
0.058 | 97.51 nm | – | 90.22% | CCCCCCCCCCCOC(=O)CCCCCN(CCN(CCO)CCOCCC(=O)OCC(CCCCCCCC)CCCCCCCC)C1CCCCC1 [Compound 115]
0.042 | 91.85 nm | – | 89.31% | CCCCCCCCCCCC(=O)OCCCCCN(CCN(CCO)CCOCCOC(=O)CC(CCCCCCCC)CCCCCCCC)C1CCCCC1 [Compound 98]
0.18 | 104.1 nm | – | 86.33% | CCCCCCCCC(CCCCCC)CNC(=O)CCCCCN(CCCCN(CCO)CCCCC(COC(=O)CCCCCCC)COC(=O)CCCCCCC)C1CCCC1 (stereo not drawn) [Compound 196]
0.035 | 112.6 nm | – | 84.88% | CCCCCCCCC(CCCCCC)CNC(=O)CCN(CCO)CCN(CCCCC(COC(=O)CCCCCCC)COC(=O)CCCCCCC)C1CCCCC1 (stereo not drawn) [Compound 211]
0.158 | 70.01 nm | – | 91.45% | CCCCCCCCC(CCCCCC)CNC(=O)CCCCCN(CCCCN(CCO)CCCCC(COC(=O)CCCCCCC)COC(=O)CCCCCCC)C1CCCCC1 (stereo not drawn) [Compound 197]
0.069 | 58.08 nm | – | 90.52% | CCCCCCCCCCCOC(=O)CCCCCN(CCN(CCO)CCCCCC(=O)OCC(CCCCCCCC)CCCCCCCC)C1CC1 [Compound 129]
